Experimental data taken from publication PMC5630632, “Assessing inhibitors of mutant isocitrate dehydrogenase using a suite of pre-clinical discovery assays” (Scientific Reports, 2017).
Positions count from the first letter of the chain named. Values after ≈ are worked out from the molar mass of the structure shown. Read-outs that look alike come from different tables or passages of the source.

How the values were obtained:
R172Q mIDH2 = target: T1, R172Q mIDH2 (Homo sapiens, UniProt P48735, R172Q); assay: mIDH2-R172Q enzyme assay (Reaction Biology), diaphorase/resazurin coupled; conditions: for Emax: read-out: IDH2 R172Q % EMax
T1 sequence (P48735 40-452 R172Q): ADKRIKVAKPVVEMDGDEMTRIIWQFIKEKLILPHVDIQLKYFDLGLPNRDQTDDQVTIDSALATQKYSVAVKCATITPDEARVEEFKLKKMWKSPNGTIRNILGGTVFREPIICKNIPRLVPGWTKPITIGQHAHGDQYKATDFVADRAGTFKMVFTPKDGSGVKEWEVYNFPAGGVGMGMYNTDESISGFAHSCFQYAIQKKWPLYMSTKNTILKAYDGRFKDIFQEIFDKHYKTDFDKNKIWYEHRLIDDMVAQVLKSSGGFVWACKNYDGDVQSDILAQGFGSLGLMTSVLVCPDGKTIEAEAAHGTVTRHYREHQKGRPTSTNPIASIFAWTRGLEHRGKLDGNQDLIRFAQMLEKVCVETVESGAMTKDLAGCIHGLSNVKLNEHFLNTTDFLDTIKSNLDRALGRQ

IDH2 WT = target: T2, IDH2 WT (Homo sapiens, UniProt P48735); assay: Wild type IDH2 enzyme assay, diaphorase/resazurin coupled
T2 sequence (P48735 40-452): T1 sequence (P48735 40-452 R172Q) with Q133R

[1] = tested on: JJ012 (R132G) 3D cellular spheroids; assay: 2-HG production, spheroids (3D), JJ012; format: cell-based; conditions: Homo sapiens; 3D spheroid, mass spec
Excerpt: (§1) To evaluate the effect of mIDH1 inhibitors in more relevant models of solid tumors, we adapted a 3-dimensional (3D) multicellular tumor spheroid assay to monitor spheroid formation and 2-HG production. Small molecules can have diminished efficacy in multicellular tumor spheroid models due to limited penetration and the heterogeneous nature of the 3D tumor spheroid[39],[40]. We began by testing the 6 aforementioned cell lines for their ability to form spheroids in ultra-low attachment plates at varying cell concentrations (1000–5000 cells/well). […] Overall, spheroids produced less extracellular 2-HG than cells cultured in monolayer (Fig. 7B).
(§2) Using these simple 3D models of solid tumors, we assessed the ability of inhibitors to reduce 2-HG production.
(§3) 2-HG production: Cells grown as spheroids (3D)
(§4) (RBE) cells/well/150 μ L to form spheroids. Of note, we were not able to obtain spheroids using SNU1079 cells. Plates were sealed with gas permeable membranes, centrifuged at 40 rcf for 1 min, and incubated at 37°C, 5% CO2, 90% RH for 96 (HT108 0, U87 and JJ01 2) or 4 8 (RBE) h r. Cells were washed (by remo ving 10 0 μL of exhausted media and re placing it with 100 μL of growth media, twice) and treated with 50 μL of a solution of media containing the indicated compounds. Each compound was tested as an 8-point dilution series ranging from 5 μM to 2.3 nM.
(§5) After 96 hr of t reatment, 100 μL of the exhausted media was collected and snap frozen on dry ice. Samples were analyzed by LC -MS for 2- HG concentrations using Rapidfire /Mass Spectrometry (Quintara) ( 4) . Plates were first imaged on the Celigo Imaging Cytometer (Ne xcelom Bioscience) to quantify area of each spheroid. Cell viability was subsequently measured using the CellTiter-Glo assay with some modifications: 50 μL of a solution of CellTiter-Glo reagent containing a final concentration of 0.025 % Trypsin (Thermo Sci entific) was added to each well and plates were shaken at 500 rpm for 30 min before reading.

JJ012 (R132G) cells = assay: 2-HG production, monolayer (2D), mass spectrometry, JJ012; format: cell-based; conditions: Homo sapiens, mass spec; for Emax: read-out: 2D Cellular 2HG Production (Mass Spec) JJ012 (R132G) % EMax; for EC50: read-out: 2D Cellular 2HG Production (Mass Spec) JJ012 (R132G) EC50
Method: (§6) (Supplementary Table 2). Inhibition of the target was assessed by quantitative measurement of 2-HG levels in extracellular media of monolayer (or 2-dimentional, 2D) cultures following incubation (48 hrs) with inhibitors. […]
(§7) treated 96-well plates (Corning) at a density of 8000 cells/well/100 μL . Plates were sealed with gas permeable membranes (Research Products International Corp.) and incubated at 37°C, 5% CO2, 90% RH for 24 hr. Growth media was subsequently aspirated and replaced with 100 μL of a solution of growth media cont aining either vehicle DMSO or indicated mIDH1 inhibitor. Each compound was tested as an 8-point dilution series ranging from 5 μM to 2.3 nM. After 48 hr treatment, 75 μL of the exhausted media was collected and snap frozen on dry ice. Samples were analyzed by LC-MS for 2- HG concentrations using Rapidfire / Mass Spectrometry (Quintara) (4) . Remaining cells were assessed for viability by adding 100 μL of fresh media and 50 μL of CellTiter-Glo reagent (Promega) as per manufacturer instructions. Luminescence was read using a Vi ewLux High-throu ghpu t CCD imager (PerkinElmer) equipped with clear filters.

[2] = tested on: RBE (R132S) 3D cellular spheroids; assay: 2-HG production, spheroids (3D), RBE; format: cell-based; conditions: Homo sapiens; 3D spheroid, mass spec
Excerpt: as §1, §2, §3, §4, §5

RBE (R132S) cells = assay: 2-HG production, monolayer (2D), mass spectrometry, RBE; format: cell-based; conditions: Homo sapiens, mass spec; for Emax: read-out: 2D Cellular 2HG Production (Mass Spec) RBE (R132S) % EMax; for EC50: read-out: 2D Cellular 2HG Production (Mass Spec) RBE (R132S) EC50
Method: as §6, §7

IDH1 WT = IDH1 WT (Homo sapiens, UniProt O75874); assay: Wild type IDH1 enzyme assay, diaphorase/resazurin coupled; conditions: for Emax: read-out: IDH1 WT % EMax
Chain of IDH1 WT (O75874 whole entry): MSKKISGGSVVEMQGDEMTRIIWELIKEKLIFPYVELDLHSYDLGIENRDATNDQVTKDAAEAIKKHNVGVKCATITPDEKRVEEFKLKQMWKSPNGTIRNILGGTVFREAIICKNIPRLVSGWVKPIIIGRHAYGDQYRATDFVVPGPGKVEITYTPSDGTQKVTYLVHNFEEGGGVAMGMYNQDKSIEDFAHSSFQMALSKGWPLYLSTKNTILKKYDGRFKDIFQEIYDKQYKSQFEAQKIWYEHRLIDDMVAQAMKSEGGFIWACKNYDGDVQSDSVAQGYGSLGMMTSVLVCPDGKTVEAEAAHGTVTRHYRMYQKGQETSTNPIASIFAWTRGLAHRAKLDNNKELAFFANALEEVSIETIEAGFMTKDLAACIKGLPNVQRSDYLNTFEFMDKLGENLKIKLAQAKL

[3] = High-throughput PAMPA (GIT), pH 7.4; format: in vitro ADME; conditions: read-out: HT PAMPA Permeability
Excerpt: In Vitro Physicochemical and Drug Metabolism Studies:
High-Throughput PAMPA assay
The stirring double- sin k PAMPA method patented by pION Inc. (Billeri ca, MA) was employed to determine the permeability of compounds via PAMPA passive diffusion. The PAMPA lipid membrane consisted of an artificial membrane of a proprietary lipid mixture and dodecane (Pion Inc.), optimized to predict gastrointestinal tract (GIT) passive diffusion permeability, was immobilized on a plastic matrix of a 96 well “donor” filter plate placed above a 96 well “a cceptor” plate. A pH 7.4 solution was used in both donor and acceptor wells. The test articles, stocked in 10 mM DMSO solutions, were diluted to 0.05 mM in aqueous buffer (pH 7.4) , and the concentration of DMSO was 0.5% in the final solution. During the 30-min permeation period at room temperature, the test samples in the donor compartment were stirred using the Gutbox te chnology (Pion Inc.) to reduce the unstirred water layer. The test article concentrations in the donor and acceptor compartments were measured using an UV plate reader (Nano Quant, Infinite 200 […]
PRO, Tecan Inc., Männedorf, Switzerland). Permeability calculations were performed using Pion Inc. software and were expressed in units of 10-6 cm/s. […]

human hepatocytes = assay: Human hepatocyte cytotoxicity (CellTiter-Glo, 72 hr); conditions: Homo sapiens, Hepatocyte, read-out: Human Hepatocytes EC50
[4] = as above; conditions: both, human, cryopreserved human hepatocytes
[5] = High-throughput kinetic solubility (µSOL), pH 7.4; format: physicochemical; conditions: aqueous solution pH 7.4, pH 7.4, aqueous buffer, kinetic from dmso stock; read-out: HT Kinetic Solubility, Solubility
Method: High-Throughput kinetic solubility test assay
Pion’s patented µSOL assay for kinetic solubility determination was used. In this assay, the classical saturation shake- flask solub ility method was adapted to a 96-well microtiter plate format and a co-solvent method with n- propanol as the […] was utilized. Test compounds were prepared in 10 mM DMSO solutions (45 µ L), and diluted with the co-solve nt to a final drug conce ntration of […]
Samples are incubated at room temperature for 6 hrs t o achieve equilibrium. The samples were then filtered to remove any precipitate formed. The concentrat ion of the compound in the filtrate was measured by UV ab sorbance. […]
used for quantitation of unknown drug concent ration in filtrate. Spectroscopically pure 1- Propanol was used as acosolvent to suppress precipitation in the reference

hERG channel = target: T3, hERG channel (Homo sapiens, UniProt Q12809); assay: hERG FluxOR-based thallium flux assay; format: cell-based; conditions: In Vitro Toxicity; for Emax: human, U2OS cells transduced with hERG-BacMam virus
T3 construct: host or cells: U2OS cells (ATCC)
T3 sequence (Q12809 whole entry): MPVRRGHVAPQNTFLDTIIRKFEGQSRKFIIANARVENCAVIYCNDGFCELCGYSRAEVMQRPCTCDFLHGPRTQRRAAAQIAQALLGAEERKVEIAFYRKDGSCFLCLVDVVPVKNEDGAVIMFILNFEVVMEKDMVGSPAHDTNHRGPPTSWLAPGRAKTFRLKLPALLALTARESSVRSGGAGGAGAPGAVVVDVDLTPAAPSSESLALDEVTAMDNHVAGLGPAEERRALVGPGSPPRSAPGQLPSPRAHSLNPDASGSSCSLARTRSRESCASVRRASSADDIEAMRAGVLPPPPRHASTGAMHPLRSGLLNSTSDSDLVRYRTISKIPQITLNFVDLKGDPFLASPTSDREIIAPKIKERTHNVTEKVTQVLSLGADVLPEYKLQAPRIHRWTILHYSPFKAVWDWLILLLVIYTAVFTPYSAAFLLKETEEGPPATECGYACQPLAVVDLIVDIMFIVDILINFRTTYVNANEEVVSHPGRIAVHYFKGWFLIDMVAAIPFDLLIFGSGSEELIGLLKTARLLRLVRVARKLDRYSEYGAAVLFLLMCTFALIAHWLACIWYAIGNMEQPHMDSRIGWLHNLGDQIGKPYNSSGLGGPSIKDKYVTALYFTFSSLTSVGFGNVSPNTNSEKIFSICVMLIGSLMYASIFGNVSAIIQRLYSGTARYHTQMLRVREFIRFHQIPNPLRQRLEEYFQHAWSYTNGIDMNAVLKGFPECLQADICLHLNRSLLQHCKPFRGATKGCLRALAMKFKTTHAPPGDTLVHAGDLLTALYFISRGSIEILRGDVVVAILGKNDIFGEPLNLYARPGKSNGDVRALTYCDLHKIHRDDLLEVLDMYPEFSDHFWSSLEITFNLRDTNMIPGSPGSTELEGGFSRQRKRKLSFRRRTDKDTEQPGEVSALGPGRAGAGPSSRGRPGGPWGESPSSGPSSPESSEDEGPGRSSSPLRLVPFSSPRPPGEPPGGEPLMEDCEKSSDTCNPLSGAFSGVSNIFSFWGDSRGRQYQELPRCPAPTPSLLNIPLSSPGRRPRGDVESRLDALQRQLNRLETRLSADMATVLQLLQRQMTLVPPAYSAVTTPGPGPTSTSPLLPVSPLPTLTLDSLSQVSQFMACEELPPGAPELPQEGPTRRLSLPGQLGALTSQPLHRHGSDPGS

in vitro = conditions: human, Caco-2
[6] = Microsomal metabolic stability, human; format: in vitro ADME; conditions: pH 7.4; human liver microsomes
[7] = Microsomal metabolic stability, mouse; format: in vitro ADME; conditions: pH 7.4; mouse liver microsomes
[8] = Microsomal metabolic stability, rat; format: in vitro ADME; conditions: pH 7.4; rat liver microsomes
[9] = Human plasma protein binding (rapid equilibrium dialysis, Cyprotex); format: in vitro ADME; conditions: for fraction unbound at 4 h, 5 µM: human, plasma, human plasma
[10] = read-out: Human Plasma Protein Binding % Bound (converted)
[11] = read-out: Human Plasma Protein Binding % Unbound

Row | SMILES | EC50 (R172Q mIDH2) [µM] | Emax (R172Q mIDH2) [%] | EC50 (IDH2 WT) [µM] | Emax (IDH2 WT; read-out: IDH2 % EMax) [%] | Emax (IDH2 WT; read-out: IDH2 WT % EMax) [%] | EC50 [1] [µM] | Emax [1] [%] | Emax (JJ012 (R132G) cells) [%] | EC50 (JJ012 (R132G) cells) [µM] | EC50 [2] [µM] | Emax [2] [%] | Emax (RBE (R132S) cells) [%] | EC50 (RBE (R132S) cells) [µM] | Emax (IDH1 WT) [%] | Papp at 30 min, 0.05 mM [3] [×10⁻⁶ cm/s] | EC50 (human hepatocytes) [µM] | Emax at 72 h [4] [%] | solubility kinetic at 6 h [5] [µM] | EC50 (hERG channel) [µM] | EC50 (IDH1 WT; IDH1 WT EC50, Biochemical) [µM] | also measured
1 | CC(C)(C)CC(C)(C)c1cc(Cn2ccnc2)c(O)c(Cn2ccnc2)c1 [Sanofi 1] | > 30 | 3.2 | > 30 | 26.7 | 19.9 ± 8 | > 30 | 35.3 | 28.8 | > 30 | > 30 | 47.3 | 29.3 | > 30 | 18.8 ± 2.2 | – | – | – | – | – | – | –
2 | O=C(Nc1cccc(C(F)(F)F)c1)Nc1cc(S(=O)(=O)NC2CC2)ccc1-c1ccsc1 [AGI-6780] | – | 74.4 | – | 85.2 | – | – | – | – | – | – | – | – | – | 8.1 | 523 | 21.9 | 108 | 0.374 (≈ 0.18 µg/mL) | 25.1 | > 30 | Emax (hERG channel): 99.8%; Papp A→B at 2 h, 10 µM (in vitro): 0.85 ×10⁻⁶ cm/s; Papp B→A at 2 h, 10 µM (in vitro): 12.5 ×10⁻⁶ cm/s; half-life at 1 µM [6]: 3.1 min; half-life at 1 µM [7]: 4.6 min; half-life at 1 µM [8]: 4.5 min; fraction unbound at 4 h, 5 µM [9, 10]: 0.001; fraction unbound at 4 h, 5 µM [9, 11]: 0.00083
3 | CC(C)[C@H]1COC(=O)N1c1ccnc(N[C@@H](C)c2ccc(C(=O)NC3CCCC3)c(Cl)c2)n1 [Novartis 530] | > 30 | 3.9 | > 30 | – | 17.3 ± 4.4 | 0.069 | 92.4 | 70.5 | 0.076 | 0.571 | 86.9 | 88.2 | 0.078 | 102 ± 5.8 | – | – | – | – | – | 3.5 | EC50 (IDH1 WT; IDH1 WT EC50, purified enzyme): 3.51 ± 0.17 µM
4 | CC(=O)N1CCN(Cc2ccc([C@H](C)Nc3nccc(N4C(=O)OC[C@@H]4C(C)C)n3)cc2)CC1 [Novartis 556] | – | – | > 30 | – | 20.7 ± 5.4 | – | – | – | – | – | – | – | – | 90 ± 7.4 | – | – | – | – | – | – | EC50 (IDH1 WT; IDH1 WT EC50, purified enzyme): 10.5 ± 1.01 µM; unbound fraction in human plasma ([9]; 5 µM): ~ 10 % unbound
5 | CC(C)(O)CNc1nc(Nc2ccnc(C(F)(F)F)c2)nc(-c2cccc(C(F)(F)F)n2)n1 [AG-221, Enasidenib] | 0.044 | 87.2 | > 30 | 83.4 | – | – | – | – | – | – | – | – | – | 57.7 | 1310 | 18.4 | 84.8 | 14.2 (≈ 6.72 µg/mL) | > 30 | 15.1 | IC50 (R172Q mIDH2): 0.065 µM; Emax (hERG channel): 33.2%; Papp A→B at 2 h, 10 µM (in vitro): 9.41 ×10⁻⁶ cm/s; Papp B→A at 2 h, 10 µM (in vitro): 23.8 ×10⁻⁶ cm/s; efflux ratio at 2 h, 10 µM (in vitro): 2.54; half-life at 1 µM [6]: > 120 min; half-life at 1 µM [7]: > 120 min; half-life at 1 µM [8]: > 120 min; fraction unbound at 4 h, 5 µM [9, 10]: 0.006; fraction unbound at 4 h, 5 µM [9, 11]: 0.00637
6 | CC(C)[C@H]1COC(=O)N1c1ccnc(N[C@@H](C)c2ccc(CN3CCC(F)(F)CC3)cc2)n1 [Novartis 224] | > 30 | 3.4 | > 30 | – | 19.4 ± 11.4 | 0.098 | 87.2 | 68 | 0.121 | 0.412 | 86.3 | 109 | 0.221 | – | – | – | – | – | – | – | –
7 | CC(C)Nc1nc(Nc2ccccc2)nc(-c2ccccc2)n1 [IDH2-C100] | 0.343 | 72.2 | 6.59 | 84.7 | – | – | – | – | – | – | – | – | – | 11.8 | 482 | > 30 | 31.5 | 0.458 (≈ 0.14 µg/mL) | > 30 | > 30 | IC50 (R172Q mIDH2): ~1 µM; Emax (hERG channel): 7.2%; Papp A→B at 2 h, 10 µM (in vitro): 0.57 ×10⁻⁶ cm/s; Papp B→A at 2 h, 10 µM (in vitro): 2.34 ×10⁻⁶ cm/s; half-life at 1 µM [6]: 20.6 min; half-life at 1 µM [7]: 13.5 min; half-life at 1 µM [8]: 26.7 min; fraction unbound at 4 h, 5 µM [9, 11]: 0.00011
